Tests used:
Experiment in all cases: relative viability (nuclei count vs DMSO), 5 days (fraction); higher = more cells survive
[1] = compound: CC1CC(=O)N(C2=CN=C(N=C2N1C3CCCC3)NC4=C(C=C(C=C4)C(=O)NC5CCN(CC5)C)OC)C [NPK76-II-72-1] + Nc1nc2[nH]cc(CCc3ccc(C(=O)N[C@@H](CCC(=O)O)C(=O)O)cc3)c2c(=O)[nH]1 [Pemetrexed] (partner 0.2 µM)
Summary of the method: (§1)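 Nuclei were stained with Hoechst during a one-step fixation (final 0.05% Triton X-100, 1% formaldehyde, 1 ug/ml Hoechst) carried out 5 days after dosing, then counted on 4× images. The cells, lung cancer lines in 1536-well plates, had been dosed by pin tool the day after seeding with one drug alone or a fixed anchor-drug dose plus five library-drug doses (not always all listed) in √10 steps. Relative viability is the nuclei count in treated wells divided by that in vehicle wells, and each value is the median of duplicate plates.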

[2] = compound: CC1CC(=O)N(C2=CN=C(N=C2N1C3CCCC3)NC4=C(C=C(C=C4)C(=O)NC5CCN(CC5)C)OC)C [NPK76-II-72-1] + CC(C)C[C@H](NC(=O)[C@H](Cc1ccccc1)NC(=O)c1cnccn1)B(O)O [Bortezomib] (partner 0.002 µM)
Summary of the method: as §1

[3] = compound: CC[C@@H]1C(=O)N(C)c2cnc(Nc3ccc(C(=O)NC4CCN(C)CC4)cc3OC)nc2N1C1CCCC1 [BI-2536] + Cc1cc(Nc2cc(N3CCN(C)CC3)nc(Sc3ccc(NC(=O)C4CC4)cc3)n2)n[nH]1 [Tozasertib] (partner 0.1 µM)
Summary of the method: as §1

[4] = compound: CC1CC(=O)N(C2=CN=C(N=C2N1C3CCCC3)NC4=C(C=C(C=C4)C(=O)NC5CCN(CC5)C)OC)C [NPK76-II-72-1] + CCNC(=O)c1noc(-c2cc(C(C)C)c(O)cc2O)c1-c1ccc(CN2CCOCC2)cc1 [Luminespib] (partner 0.01 µM)
Summary of the method: as §1

## UMC-11
[1]; first compound 0.01 µM
  relative viability: 0.79
[1]; first compound 0.03162 µM
  relative viability: 0.869
[1]; first compound 0.1 µM
  relative viability: 0.768
[1]; first compound 0.3162 µM
  relative viability: 0.728
[1]; first compound 1 µM
  relative viability: 0.697
[2]; first compound 0.01 µM
  relative viability: 0.743
[2]; first compound 0.03162 µM
  relative viability: 0.605
[2]; first compound 0.1 µM
  relative viability: 0.773
[2]; first compound 0.3162 µM
  relative viability: 0.659
[2]; first compound 1 µM
  relative viability: 0.788
[3]; first compound 0.01 µM
  relative viability: 0.184
[3]; first compound 0.03162 µM
  relative viability: 0.203
[3]; first compound 0.1 µM
  relative viability: 0.198
[3]; first compound 0.3162 µM
  relative viability: 0.31
[3]; first compound 1 µM
  relative viability: 0.361
[4]; first compound 0.01 µM
  relative viability: 0.997
[4]; first compound 0.03162 µM
  relative viability: 1
[4]; first compound 0.1 µM
  relative viability: 0.934
[4]; first compound 1 µM
  relative viability: 0.988

Reference: the supplement of paper PMC10307832
